Consider three sequences from patent US8535942B2, “Glypican-3 (GPC3)-derived tumor rejection antigenic peptides useful for HLA-A2-positive patients and pharmaceutical comprising the same” (Oncotherapy Science, Inc., priority 2005, dated 2013).

“Also recorded” adds a separate entry of the source. No end group written: not given here.

In this data set the test system is SK-Hep-1/GPC3 cells. Put plainly: Cytotoxicity test of peptide-induced killer T cells (calcein AM, Terascan VP). Particulars: killer T cells induced with peptide-loaded dendritic cells; targets SK-Hep-1/GPC3 vs SK-Hep-1; E/T ratio 20:1. The class given is cell-based, human. As for the experimental part: Informed consent was obtained from HLA-A2-positive hepatocellular carcinoma patients, who were in therapy at Gastroenterological Surgery, Kumamoto University School of Medicine, and at Hospital East, the National Cancer Center. Thereafter, 30 ml of blood sample was obtained from individual patients, and peripheral blood mononuclear cells were then isolated using Ficoll-Conray density-gradient centrifugation method according to the previously reported method (Nakatsura, T et al., Eur. J. Immunol. 32, 826-836 (2002)).
From the isolated peripheral blood mononuclear cells, killer T cells were induced by the previously reported method (Monji, M et al., Clin Cancer Res 10, 6047-6057, 2004). First, CD8-positive cells and CD14-positive cells were separated from the peripheral blood mononuclear cells using MACS. The CD14-positive cells were cultured in the presence of GM-CSF (100 ng/ml) and IL-4 (20 ng/ml) for 5 days, so that differentiation of dendritic cells was induced. Thereafter, TNF-α (20 ng/ml) was added thereto for maturation. On the 7th day, each GPC3 peptide (10 μM) was added thereto, and co-culture with CD8-positive cells was then carried out. This antigen stimulation with autologous CD14-positive cell-derived dendritic cells was repeated 3 or 4 times every week, so that peptide-specific killer T cells were induced. During the induction, half a medium was exchanged with a fresh one every two days, and IL-2 was added thereto in a concentration of 10 U/ml.
The cytotoxic activity of killer T cells was evaluated by a cytotoxic test using Terascan VP. First, target cells were fluorescently labeled with a calcein AM staining solution at 37° C. for 30 minutes. Such cells were co-cultured with killer T cells on a Coster 96-well half area plate, and fluorescently labeled cells were then detected over time, thereby measuring the degree of cytotoxicity. The analysis was carried out using cytotoxicity test computing software CalCT-961 of MINERVA TECH, which was used in a fluorescence method. An experiment was carried out at an E/T ratio of 20:1. […]
As to FVGEFFTDV [GPC3 144-152, FVGEFFTDV], the GPC3-specific cytotoxic activity entry is reported as “confirmed; also recorded: exhibited strong cytotoxic activity”.
RLQPGLKWV [GPC3 44-52, RLQPGLKWV]: the GPC3-specific cytotoxic activity result is recorded as “confirmed; also recorded: exhibited strong cytotoxic activity”.
The entry for YILGSDINV [GPC3 155-163, YILGSDINV] is “confirmed; also recorded: exhibited strong cytotoxic activity”.
